# What was measured:
# [1] = target: Cyclin-dependent kinase 2/cyclin E (Homo sapiens, UniProt P24941); test: Inhibitory activity against baculovirus expressed Cyclin dependent kinase 2-cyclinE; format: protein-complex assay
# [2] = target: Cyclin-dependent kinase 4/cyclin D1 (Homo sapiens, UniProt P11802); test: Inhibitory activity against baculovirus expressed Cyclin dependent kinase 4-cyclinD1; format: protein-complex assay
# [3] = target: Cyclin-dependent kinase 1/cyclin B (Homo sapiens, UniProt P06493); test: Inhibitory activity against baculovirus expressed Cyclin dependent kinase 1-cyclinB; format: protein-complex assay
# A2780 = test: cells; conditions: Homo sapiens
# Description: Cytotoxic activity against A2780 human ovarian carcinoma cell line
# Sequence of Cyclin-dependent kinase 4/cyclin D1 (P11802 whole entry): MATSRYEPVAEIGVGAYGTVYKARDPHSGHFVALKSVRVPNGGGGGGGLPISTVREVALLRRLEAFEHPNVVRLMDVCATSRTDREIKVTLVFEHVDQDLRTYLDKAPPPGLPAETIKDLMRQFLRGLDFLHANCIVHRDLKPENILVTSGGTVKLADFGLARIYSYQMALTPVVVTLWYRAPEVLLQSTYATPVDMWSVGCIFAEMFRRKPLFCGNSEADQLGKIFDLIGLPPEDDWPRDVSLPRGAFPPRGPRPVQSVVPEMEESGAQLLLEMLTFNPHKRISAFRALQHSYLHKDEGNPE
# Sequence of Cyclin-dependent kinase 4/cyclin D1 (P24385 whole entry, further chain): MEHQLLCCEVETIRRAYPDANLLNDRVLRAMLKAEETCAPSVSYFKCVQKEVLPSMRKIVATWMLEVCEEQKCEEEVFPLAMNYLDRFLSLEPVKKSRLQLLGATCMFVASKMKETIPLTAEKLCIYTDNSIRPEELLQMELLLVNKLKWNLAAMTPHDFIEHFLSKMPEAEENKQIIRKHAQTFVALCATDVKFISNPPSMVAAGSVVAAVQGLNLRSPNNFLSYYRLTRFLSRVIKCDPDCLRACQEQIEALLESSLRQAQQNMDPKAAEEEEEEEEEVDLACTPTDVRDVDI
Structure (SMILES),IC50 [1],IC50 [2],IC50 [3],IC50 (A2780)
CC(=O)Nc1ncc(SCc2cccnc2)s1,680 nM,–,–,–
CC(=O)Nc1ncc(SCc2ncc(C)o2)s1,90 nM,5160 nM,–,–
CC(=O)Nc1ncc(SCC2CCCCC2)s1,> 1000 nM,–,–,–
CC(=O)Nc1ncc(SCc2ncc(C(C)C)o2)s1,6 nM,1070 nM,60 nM,200 nM
CCOC(=O)CCCCCSc1cnc(NC(C)=O)s1,> 1000 nM,–,–,–
CC(C)(C)c1cnc(CSc2cnc(NC(=O)c3ccccc3)s2)o1,–,960 nM,–,–
CC(=O)Nc1ncc(SCC(O)CC(C)(C)C)s1 (stereo not drawn),2810 nM,–,–,–
CC(=O)Nc1ncc(SCCOc2ccccc2)s1,> 1000 nM,–,–,–
CC(=O)Nc1ncc(SCc2ccncc2)s1,> 1000 nM,–,–,–
CC(=O)Nc1cnc(SCc2ncc(C(C)(C)C)o2)s1,> 25000 nM,–,–,–
CC(=O)Nc1ncc(SCc2nc(C)c(C)o2)s1,360 nM,–,–,–
CC(=O)Nc1ncc(SCc2nnsc2Cl)s1,> 1000 nM,–,–,–
CCN(C)C(=O)CSc1cnc(NC(C)=O)s1,> 25000 nM,–,–,–
CC(=O)Nc1ncc(SCC(=O)CC(C)(C)C)s1,1840 nM,–,–,–
CC(=O)Nc1ncc(SCCc2ccccc2)s1,12600 nM,–,–,–
COC(=O)C(Sc1cnc(NC(C)=O)s1)c1ccccc1 (stereo not drawn),> 1000 nM,–,–,–
CC(C)(C)c1cnc(CSc2cnc(NC(=O)Nc3c(F)cccc3F)s2)o1,2 nM,390 nM,10 nM,240 nM
CC(C)C(=O)Nc1ncc([S+]([O-])Cc2ncc(C(C)(C)C)o2)s1 (stereo not drawn),140 nM,> 25000 nM,140 nM,–
CC(C)(C)c1cnc(CSc2cnc(NS(=O)(=O)c3ccccc3)s2)o1,4280 nM,–,–,2860 nM
CC(=O)Nc1ncc(SCC(=O)OCc2ccccc2)s1,340 nM,19100 nM,2380 nM,–
CC(=O)Nc1nc(CSc2cnc(NC(C)=O)s2)cs1,> 1000 nM,–,–,–
CCc1coc(CSc2cnc(NC(C)=O)s2)n1,200 nM,–,–,–
COC(=O)C(Sc1cnc(NC(C)=O)s1)C1CCCCC1 (stereo not drawn),> 1000 nM,–,–,–
CC(=O)Nc1ncc(SCCc2cccc3ccccc23)s1,> 1000 nM,–,–,–
CC(=O)Nc1nnc(SCC(=O)OC(C)(C)C)s1,> 25000 nM,–,–,–
C[C@@H](C(=O)Nc1ncc(SCc2ncc(C(C)(C)C)o2)s1)c1ccccc1,6 nM,3130 nM,–,900 nM
CC(=O)Nc1ncc(SCc2ncc(C(C)(C)C)o2)s1,5 nM,690 nM,40 nM,–
CCNC(=O)Nc1ncc(SCc2ncc(C(C)(C)C)o2)s1,50 nM,–,–,120 nM
CC(C)C(=O)N(C)c1ncc(SCc2ncc(C(C)(C)C)o2)s1,> 25000 nM,–,–,–

# The next lines start with the values.
IC50 [1],IC50 [2],IC50 [3],IC50 (A2780),Structure (SMILES)
> 1000 nM,–,–,–,CC(=O)Nc1ncc(SCc2c(C)noc2C)s1
3 nM,–,–,–,CC(C)(C)c1ncc(CSc2cnc(NC(=O)Cc3ccccc3)s2)o1
5 nM,1070 nM,60 nM,200 nM,CCc1cnc(CSc2cnc(NC(=O)C(C)C)s2)o1
> 1000 nM,–,–,–,COCCSc1cnc(NC(C)=O)s1
> 25000 nM,–,–,–,CC(=O)Nc1ncc(SCC(=O)O)s1
> 1000 nM,–,–,–,CC(=O)Nc1ncc(SCC(C)C)s1
350 nM,4510 nM,–,–,CC(=O)Nc1ncc(SCc2ncc(-c3ccccc3)o2)s1
1740 nM,–,–,–,CC(=O)Nc1ncc(SCCOC(C)(C)C)s1
25 nM,2990 nM,18 nM,640 nM,CC(C)OC(=O)Nc1ncc(SCc2ncc(C(C)(C)C)o2)s1
50 nM,5380 nM,440 nM,–,CC(=O)Nc1ncc(SCC(=O)OC(C)(C)C)s1
> 1000 nM,–,–,–,CCC(CC)CSc1cnc(NC(C)=O)s1
60 nM,–,–,–,C[C@H](C(=O)Nc1ncc(SCc2ncc(C(C)(C)C)o2)s1)c1ccccc1
> 1000 nM,–,–,–,COC(=O)c1ccc(CSc2cnc(NC(C)=O)s2)o1
> 1000 nM,–,–,–,CC(=O)Nc1ncc(SCc2ccccn2)s1
150 nM,–,–,1040 nM,CC(C)(C)c1cnc(CSc2cnc(NC(=O)OCc3ccccc3)s2)o1
250 nM,–,> 250 nM,–,CC(C)C(=O)Nc1ncc(S(=O)(=O)Cc2ncc(C(C)(C)C)o2)s1

# Reference: ChEMBL document CHEMBL1135763, “Discovery of aminothiazole inhibitors of cyclin-dependent kinase 2: synthesis, X-ray crystallographic analysis, and biological activities” (J Med Chem, 2002)
